The values that follow come from patent publication US6710075B2, “Therapeutic compounds and methods” (The Government of the State of Sarawak, Malaysia, priority 2000, dated 2004).

Series [1] has as its system Intercellular Adhesion Molecule-1 (ICAM-1). In words: IL-1-induced ICAM-1 surface expression by A549 cells (Delfia). The format is cell-based, human. To be noted: 24 hours, read-out: IC50 ICAM-1 Production. From the text: (§1) (a) Compounds A and B were identified from a bark sample of Aglaia leptantha through their ability to inhibit production of Tumour Necrosis Factor-α (TNF-α) by THP-1 human promonocytic leukemia cells (Tsuchiya, et al, Int. J. Cancer, 1980, 26(2):171-6) activated with lipopolysaccharide (LPS). Table 4 summarises the results comparing the activity of Compounds A and B for inhibition of TNF-α production to their effects on general cell metabolism measured using WST-1 reduction, DNA synthesis and protein synthesis assays for THP-1 cells. […] For comparison, the effects of Compounds A and B on A549 lung epithelial carcinoma cells (Leiber et al, Int. J. Cancer, 1976, 17(1)-62-70) were also measured and the data is also included in Table 4.

The test system of series [2] is THP-1 cells. The experiment in a line: WST-1 reduction by THP-1 cells. Type of series: cell-based, human.
Text: as §1
In general terms: Formazan colour is commonly taken as a measure of viable cells.

The subject of series [3] is Tumour Necrosis Factor-α (TNF-α). In words: Inhibition of TNF-α production by LPS-activated THP-1 cells (sandwich ELISA). To be noted: 18 hours. Type of series: cell-based, human.
Text: as §1

For another series, the system named is K562. In words: Cytotoxic activity, sub-diploid DNA content by flow cytometry (propidium iodide). Type of series: cell-based, human. To be noted: K562, 6 days; read-out: LC50 (6 day cultures). Here is the method:
(§2) (b) Compound A was assessed for cytotoxic and cytostatic activity against a panel of cell lines derived from a variety of human tumour types in addition to THP-1 and A549 cells (Table 5). These included K562 leukemic cells (Lozzio and Lozzio, 1975, Blood 45:321-34), PC3 prostate tumour cells (Kaighn et al., 1979, Invest. Urol. 17:16-23) and SF268 glioblastoma cells (Westphal et al, 1985, Biochem. Biophys. Res. Commun., 132:284-9). […] However, the cytotoxic potency of Compound A increased dramatically after 6 days of culture for the K562, A549 and SF268 cells.

The test system of another series is THP-1. The description is as above. Type of series: cell-based, human. The note with it: THP-1, 6 days; read-out: LC50 (6 day cultures). Here is the method:
as §2

In a further series the test system is PC3. The description is as above. Type of series: cell-based, human. The note with it: PC3, 6 days; read-out: LC50 (6 day cultures). On the procedure: as §2
In another series the test system is SF268. The series is described as above. The format is cell-based, human. To be noted: SF268, 6 days; read-out: LC50 (6 day cultures). On the procedure: as §2
Series [4] relates to A549. The description is as above. The format is cell-based, human. The note with it: A549, 6 days; read-out: LC50 (6 day cultures). On the procedure: as §2
Series [5] has as its system A549 cells. The experiment in a line: Protein synthesis, [14C]-leucine uptake, A549 cells. Type of series: cell-based, human. To be noted: 72 hours.
Text: as §1

In series [6] the test system is THP-1 cells. The experiment in a line: DNA synthesis, [14C]-thymidine uptake, THP-1 cells. The format is cell-based, human. The note with it: 48 hours.
Text: as §1

The next series concerns K562 leukemic cells. The experiment in a line: DNA content analysis (cell cycle) of K562 leukemic cells. The format is cell-based, human. To be noted: K562, 10-15 nM, 3 days. Here is the method: K562 cells were cultured for 3 days with the indicated concentration of Compounds A or B then collected and fixed in 70% ethanol prior to staining with propidium iodide and DNA content determined by flow cytometry. The numbers indicate the % of cells in G0/G1, S and G2/M phases of the cell cycle respectively relative to all cells with ≧2N DNA content.

Series [7] deals with A549 cells. In words: DNA synthesis, [14C]-thymidine uptake, A549 cells. The format is cell-based, human. The note with it: 72 hours.
Text: as §1

The test system of series [8] is THP-1 cells. In words: Protein synthesis, [14C]-leucine uptake, THP-1 cells. Type of series: cell-based, human. The note with it: 48 hours.
Text: as §1

Series [9] relates to A549 cells. In words: Effect on cell cycle arrest and cell death induced by anti-cancer agents, DNA content analysis. To be noted: 3 days. The format is cell-based. Here is the method:
A549 cells in 6 well plates were cultured for 3 days in the presence or absence of 10 nM Compound A together with 0.1 μM camptothecin, 10 μM vinblastin, 1 μM paclitaxel or 1 μM staurosporine as indicated. The cells were then collected and fixed in 70% ethanol prior to staining with propidium iodide and DNA content determined by flow cytometry. The numbers indicate the % of cells in the various cell cycle phases relative to all cells with ≧2N DNA content and also the % dead cells (ie. subdiploid ≦2N cells) to the left of the dotted marker that arose during the culture period.
This was examined in more detail using DNA content analysis to specifically measure cell cycle progression and cell death. In this experiment in addition to camptothecin and paclitaxel cells were also treated with vinblastin (another microtubule inhibitor) (Sorger et al., 1997, supra) and staurosporine (a kinase inhibitor) (Gescher, Crit Rev Oncol Hematol., 2000, 34(2):127-35).

In series [10] the test system is A549 cells. The experiment in a line: Cell death as loss of membrane integrity, YOYO-1 uptake. To be noted: Homo sapiens, A549, 72 h, read-out: LC50. Type of series: cell-based. From the text: (§3) (a) Table 8 compares the cytostatic and cytotoxic effects of Compound A to three previously identified 1H-cyclopenta[b]benzofuran lignans that lack the dioxanyloxy group at the C6-position. The reference compounds are: Rocaglaol (Reference Compound 1) (Ohse et al., J Nat Prod, 1996, 59(7):650-52); 4′-Demethoxy-3′,4′-methylenedioxyrocaglaol (Reference Compound 2) and Methyl 4′-demethoxy-3′,4′-methylenedioxyrocaglate (Reference Compound 3) (Lee et al., Chem Biol Interact, 1998, 115(3):215-28).

For series [11], the system named is THP-1 cells. The series is described as above. The format is cell-based. To be noted: Homo sapiens, THP-1, 72 h, read-out: LC50.
Text: as §3

In series [12] the test system is A549. In words: Cytostatic activity, relative cell number by YOYO-1 DNA dye. The note with it: Homo sapiens, 72 h; A549, lung; read-out: GI50 (3 day cultures). Type of series: cell-based, human. Here is the method: as §2
Series [13] concerns A549 cells. In words: Senescence-associated β-galactosidase (SA-β-gal) activity staining. The format is cell-based, human. To be noted: A549, 250 nM doxorubicin, 10 days. Here is the method:
A549 cells were seeded at 10,000 cell/well in 6 well plates in the presence or absence of varying concentrations of Compound A (10-50 nM) or 250 nM doxorubicin for 10 days prior to their processing and staining overnight for senescence-associated β-galactosidase activity as described previously (Dimri et al., 1995, Proc Natl Acad Sci USA 1995 92(20):9363-7). […] PC, phase contrast microscopy. BF, bright field microscopy Magnification×200.
This was evaluated further by measuring senescence-associated β-galactosidase (SA-β-gal) activity, a biomarker previously described to correlate well with senescence of human cells (Dimri et al., Proc Natl Acad Sci USA 1995 92(20):9363-7). […] Therefore, in addition to Compound A A549 cells were also treated with doxorubicin as an experimental control.

Series [14] deals with THP-1 cells. In words: DNA content analysis (cell cycle and viability) of THP-1 cells. Type of series: cell-based, human. The note with it: THP-1, 1000 nM paclitaxel, 2 days. Here is the method: THP-1 cells were cultured for 2 days with the indicated concentration of Compound A or 1000 nM paclitaxel then collected and fixed in 70% ethanol prior to staining with propidium iodide and DNA content determined by flow cytometry. The numbers indicate the % of cells in the various cell cycle phases relative to all cells with ≧2N DNA content and also the % dead cells (ie. subdiploid≦2N cells) to the left of the marker (the vertical line) that arose during the culture period.

Where [15] appears, read: THP-1 leukemic cells, cultured with compound for 3 days, read-out: IC50 (reduction of WST-1).

A value given as a limit tells only on which side of the number the result lay.

For orientation: IC50 means the midpoint of a concentration-inhibition curve. Turning to `COC(=O)[C@H]1[C@@H](O)[C@@]2(O)c3c(OC)cc(OC4OC(C(O)CO)COC4OC)cc3O[C@@]2(c2ccc(OC)cc2)[C@@H]1c1ccccc1` (single isomer, unassigned) [Compound B], the half-maximal inhibitory concentration (IC50) was 5 µM in series [1]; 40 nM in the series on THP-1 cells [2] (THP-1 cells, 18 hours of culture, read-out: IC50 WST-1 Reduction); 1.5 nM in the series on THP-1 cells [2] (setting [15]); 15 nM in series [3]; 10 nM in the series with A549 cells [5]; 3 nM in the series on THP-1 cells [6]. The results for the 50% inhibitory concentration (IC50) in the series with A549 cells [7] and with THP-1 cells [8] were 4 nM and 3 nM, respectively. Also, the CC50 in the series on K562 was 15 nM; in the series on THP-1, 15 nM; with PC3, 12 nM; in the series on SF268, 22 nM; with A549 [4], 12 nM. Also, the “cell cycle phase accumulation” value in the series on K562 leukemic cells is given as “characteristic accumulation of cells in G2/M phases of the cell cycle”.

Turning to `CC[C@@]1(O)C(=O)OCc2c1cc1n(c2=O)Cc2cc3ccccc3nc2-1` [camptothecin, reference compound], the “cell cycle phase accumulation” value in the series on A549 cells [9] (A549, 0.1 μM camptothecin) is listed as “accumulation of cells in S phase of the cell cycle”.

With `CC[C@]1(O)C[C@@H]2CN(CCc3c([nH]c4ccccc34)[C@@](C(=O)OC)(c3cc4c(cc3OC)N(C)[C@H]3[C@@](O)(C(=O)OC)[C@H](OC(C)=O)[C@]5(CC)C=CCN6CC[C@]43[C@@H]65)C2)C1` [vinblastin, reference compound], the “cell cycle phase accumulation” value in the series on A549 cells [9] (A549, 10 μM vinblastin) is “majority of cells arresting in the G2/M phases of the cell cycle”.

A word on the GI50: it is the concentration that inhibits growth by half. Turning to `COc1cc(OC)c2c(c1)OC1(c3ccc4c(c3)OCO4)C(c3ccccc3)CC(O)C21O` (stereo not drawn) [Reference Compound 2, 4′-Demethoxy-3′,4′-methylenedioxyrocaglaol], the CC50 in the series with A549 cells [10] and with THP-1 cells [11] was above 5 µM in each case. For the same compound, the 50% growth inhibitory concentration (GI50) in the series with A549 [12] stood at 389 nM.

Take `COc1cccc2c1C(=O)c1c(O)c3c(c(O)c1C2=O)C[C@@](O)(C(=O)CO)C[C@@H]3O[C@H]1C[C@H](N)[C@H](O)[C@H](C)O1` [doxorubicin, reference compound]: the SA-β-gal activity result in the series with A549 cells [13] is given as “exhibited SA-β-gal activity”.

With `COC(=O)[C@H]1[C@@H](O)[C@@]2(O)c3c(OC)cc(OC4OC(C(COC(C)=O)OC(C)=O)COC4OC)cc3O[C@@]2(c2ccc(OC)cc2)[C@@H]1c1ccccc1` (stereo partly drawn) [Compound B′], in the series on THP-1 cells [2] (setting [15]), the IC50 was 0.7 nM.

Consider `CC(=O)O[C@H]1C(=O)[C@@]2(C)[C@H]([C@H](OC(=O)c3ccccc3)[C@]3(O)C[C@H](OC(=O)[C@H](O)[C@@H](NC(=O)c4ccccc4)c4ccccc4)C(C)=C1C3(C)C)[C@]1(OC(C)=O)CO[C@@H]1C[C@@H]2O` [paclitaxel, reference compound], for which the “cell cycle phase accumulation” value was “caused cells to accumulate in the G2/M phases of the cell cycle” in the series on THP-1 cells [14] and “majority of cells arresting in the G2/M phases of the cell cycle” in the series with A549 cells [9] (A549, 1 μM paclitaxel).

For the compound `COc1ccc(C23Oc4cc(OC)cc(OC)c4C2(O)C(O)CC3c2ccccc2)cc1` (stereo not drawn) [Reference Compound 1, Rocaglaol], the CC50 in the series with A549 cells [10] and in the series with THP-1 cells [11] was above 5 µM each time. Besides, the GI50 in the series on A549 [12] came to 3980 nM.

As for `COC(=O)C1C(O)C2(O)c3c(OC)cc(OC)cc3OC2(c2ccc3c(c2)OCO3)C1c1ccccc1` (stereo not drawn) [Reference Compound 3, Methyl 4′-demethoxy-3′,4′-methylenedioxyrocaglate], the CC50 in the series with A549 cells [10] and with THP-1 cells [11] was above 5 µM in each case. Besides, in the series with A549 [12], the concentration for 50% growth inhibition (GI50) came out at 56 nM.

For the compound `COC(=O)[C@H]1[C@@H](O)[C@@]2(O)c3c(OC)cc(OC4OC(C(COC(C)=O)OC(C)=O)COC4OC)cc3O[C@@]2(c2ccc(OC)cc2)[C@@H]1c1ccccc1` (stereo partly drawn) [Compound A′], the IC50 with THP-1 cells [2] (setting [15]) is 0.3 nM.
